In patent US4795643A, “Medicament with a delayed release of active ingredient” (priority 1987, dated 1989):

Assay: Dissolution Paddle Apparatus (U.S. Pharmacopoeia XX): rate of release of active ingredient from the capsule in water
Assay type: physicochemical
Protocol: For this purpose, the total amount of active ingredient released (cumulative values) is determined after fixed periods of time, in particular after 1, 2, 4, 6 and 8 hours, and this amount is expressed in % by weight of the amount of active ingredient contained in the capsule.

Structure (SMILES)	release of diltiazem.HCl (absence of a polymer, 1.5 hours)	release of diltiazem.HCl (ethylcellulose, HLB of 10.5, 6 hours)	release of diltiazem.HCl (ethylcellulose, HLB of 11.5, 3 hours)	release of ibuprofen (PEG 300-stearate (HLB=9 to 10) with Eudragit S 100 added, 2 hours)	release of ibuprofen (PEG 1500-stearate (HLB=17) with Eudragit S 100 added, 8 hours)	release of ibuprofen (mixture with PEG 300-stearate, 1 hour)	release of ibuprofen (mixture with PEG 1500-stearate, 0.25 hour)
COc1ccc(C2Sc3ccccc3N(CCN(C)C)C(=O)C2OC(C)=O)cc1.Cl (stereo not shown) [diltiazem.HCl, 3-acetoxy-5-(2-dimethylaminoethyl)-2,3-dihydro-2-(4-methoxyphenyl)-1,5-benzothiazepin-4(5H)-one hydrochloride]	92.5%	68.5%	84.5%	–	–	–	–
CC(C)Cc1ccc(C(C)C(=O)O)cc1 (stereo not shown) [ibuprofen, 2-(4-isobutylphenyl)-propionic acid]	–	–	–	91.4%	84.8%	98.1%	97%
